Reference: article PMC6116705, “Design, synthesis, in vitro antiproliferative activity and apoptosis-inducing studies of 1-(3′,4′,5′-trimethoxyphenyl)-3-(2′-alkoxycarbonylindolyl)-2-propen-1-one derivatives obtained by a molecular hybridisation approach” (Journal of Enzyme Inhibition and Medicinal Chemistry, 2018)

What was measured:
[1] = system: tubulin (colchicine site); test: Inhibition of [3H]colchicine binding to tubulin; design: species or system bovine; conditions: tubulin 1 µM, [3H]colchicine 5 µM, compound 5 µM
Description: (§1) To evaluate the effect of the compounds on tubulin assembly in vitro[40], varying concentrations of compounds were preincubated with 10 μM bovine brain tubulin in 0.8M monosodium glutamate (pH adjusted to 6.6 with HCl in a 2.0M stock solution) at 30 °C and then cooled to 0 °C. After addition of 0.4 mM GTP, the mixtures were transferred to 0 °C cuvettes in a recording spectrophotometer and warmed to 30 °C. Tubulin assembly was followed turbidimetrically at 350 nm. […] The capacity of the test compounds to inhibit colchicine binding to tubulin was measured as described. The reaction mixtures contained 1 μM tubulin, 5 μM [^3H]colchicine and 5 μM test compound.

[2] = system: human colon adenocarcinoma (HT29) cells; test: Antiproliferative assay, cell counting (Coulter Counter), HT29; type: cell-based; conditions: HT29 cell line, ratio of IC50 values
Description: (§2) Human cervix carcinoma (HeLa), human colon carcinoma (HT29), human breast carcinoma (MCF-7) and human lymphoma (HL-60) cells (3–5 × 10^4 cells) and a serial (five-fold) dilution of the test compounds were added to a 96-well microtiter plate. The cells were incubated for 72–96 h (depending on the tumor cell line) at 37 °C in a humidified 5% CO2 atmosphere. At the end of the incubation period, the cells were counted in a Coulter Counter (Coulter Electronics Ltd, Harpenden Herts, UK). […] The IC50 values represent the average (±standard deviation) of at least two to four independent experiments.

U-937/Bcl-2 cells = test: Cell cycle phase distribution and apoptosis, flow cytometry (propidium iodide) and fluorescence microscopy, U-937/Bcl-2; type: cell-based, human
Description: (§3) Fluorescent microscopy and flow cytometric analysis of propidium iodide-stained cells were performed as described. Briefly, cells were harvested and fixed in 3% paraformaldehyde and incubated at room temperature for 10 min. The fixative was removed, and the cells were washed with PBS, resuspended in 30–50 μL of PBS containing 20 μg/mL bis-benzimide trihydrochloride (Hoechst 33258) and incubated at room temperature for 15 min. Stained nuclei were visualized using a Zeiss fluorescence microscope.
(§4) Flow cytometric analysis was carried out using a BD FACSVerse™ cytometer (BD Biosciences, San Jose, CA, USA).

[3] = system: U-937 cells overexpressing human Bcl-2 (U-937/Bcl-2); test: MTT cytotoxicity assay, U-937/Bcl-2; type: cell-based; conditions: Homo sapiens, U-937, 72 h, U-937/Bcl-2, MTT, read-out: IC50, inhibition of cell growth
Description: (§5) U-937 (human myeloid leukaemia) cells from DSMZ (German Collection of Microorganisms and Cell Cultures, Braunschweig, Germany) and U-937 cells overexpressing human Bcl-2 protein (designated U-937/Bcl-2, donated by Dr Jacqueline Bréard, INSERM U749, Faculté de Pharmacie Paris-Sud., Châtenay-Malabry, France) were cultured in RPMI-1640 medium containing 10% (v/v) heat-inactivated foetal bovine serum, 100 μg/mL streptomycin and 100 U/mL penicillin, incubated at 37 °C in a humidified atmosphere containing 5% CO2 as described. The functioning of U-937/Bcl-2 cells was tested using the cytotoxic agent 1-β-D-arabino-furanosylcytosine as previously described. Human peripheral blood mononuclear cells (PBMC) were isolated from heparin-anticoagulated blood of healthy volunteers by centrifugation with Ficoll-Paque Plus (GE Healthcare Bio-Sciences AB, Uppsala, Sweden). PBMC were also stimulated with phytohemagglutinin (2 μg/mL) for 48 h before the experimental treatment. The trypan blue dye exclusion method was used for counting the living/dead cells by a hematocytometer with 95% viability in all experiments. The cytotoxicity of compounds was evaluated by the colorimetric 3-(4,5-dimethyl-2-thiazolyl-)-2,5-diphenyl-2H-tetrazolium bromide (MTT) assay as previously described. Briefly, 5 × 10^3 exponentially growing cells were seeded in 96-well microculture plates with increasing concentrations of compounds for 72 h. After the addition of MTT (0.5 mg/mL), cells were incubated at 37 °C for 4 h. Sodium dodecyl sulphate (10% w/v) in 0.05 M HCl was added to the wells and then incubated at room temperature overnight in the dark. Absorbance was measured at 570 nm. […] Values are mean ± SE from at least three independent experiments, each performed in triplicate. Compounds were dissolved in DMSO and kept in the dark at 25 °C.

[4] = system: human myeloid leukaemia U-937 cells; test: MTT cytotoxicity assay, U-937; type: cell-based; conditions: U-937, MTT, 72 h, read-out: IC50, inhibition of cell growth
Description: as §5

[5] = system: human promyelocytic leukemia (HL-60) cells; test: Antiproliferative assay, cell counting (Coulter Counter), HL-60; type: cell-based; conditions: Homo sapiens; HL-60, 72–96 h; read-out: IC50, inhibition of proliferation
Description: as §2

U-937 cells = test: Cell cycle phase distribution and apoptosis, flow cytometry (propidium iodide) and fluorescence microscopy, U-937; type: cell-based, human
Description: as §3, §4

bovine brain tubulin = test: Inhibition of tubulin polymerisation (turbidimetric tubulin assembly); type: biochemical; conditions: tubulin 10 µM, 20 min at 30 °C; read-out: Tubulin assembly IC50±SD
Description: as §1

CCOC(=O)c1[nH]c2ccc(OC)cc2c1/C=C/C(=O)c1cc(OC)c(OC)c(OC)c1 [Compound 9d, (E)-Ethyl 5-methoxy-3-(3-oxo-3-(3,4,5-trimethoxyphenyl)prop-1-en-1-yl)-1H-indole-2-carboxylate]
Colchicine binding % ±SD (inhibition) [1]: 9.6 ± 2% | fold more potent than CA-4 [2]: 8–24 fold | % G1 (U-937/Bcl-2 cells; U-937/Bcl-2, 24 h, 0.3 µM): 41.0 ± 1.3% | % G2-M (U-937/Bcl-2 cells; U-937/Bcl-2, 24 h, 0.3 µM): 29.7 ± 0.2% | % S (U-937/Bcl-2 cells; U-937/Bcl-2, 24 h, 0.3 µM): 25.1 ± 1.1% | % Sub-G1 (U-937/Bcl-2 cells; U-937/Bcl-2, 24 h, 0.3 µM): 2.8 ± 0.2% | % G1 (U-937/Bcl-2 cells; U-937/Bcl-2, 24 h, 1 µM): 29.3 ± 0.3 % | % G2-M (U-937/Bcl-2 cells; U-937/Bcl-2, 24 h, 1 µM): 35.7 ± 0.2 % | % S (U-937/Bcl-2 cells; U-937/Bcl-2, 24 h, 1 µM): 28.7 ± 0.5% | % Sub-G1 (U-937/Bcl-2 cells; U-937/Bcl-2, 24 h, 1 µM): 4.6 ± 0.3% | % G1 (U-937/Bcl-2 cells; U-937/Bcl-2, 48 h, 0.3 µM): 49.1 ± 0.4% | % G2-M (U-937/Bcl-2 cells; U-937/Bcl-2, 48 h, 0.3 µM): 18.9 ± 0.7% | % S (U-937/Bcl-2 cells; U-937/Bcl-2, 48 h, 0.3 µM): 26.7 ± 2.2% | % Sub-G1 (U-937/Bcl-2 cells; U-937/Bcl-2, 48 h, 0.3 µM): 4.4 ± 1.0% | % G1 (U-937/Bcl-2 cells; U-937/Bcl-2, 48 h, 1 µM): 33.2 ± 2.3 % | % G2-M (U-937/Bcl-2 cells; U-937/Bcl-2, 48 h, 1 µM): 31.0 ± 2.8 % | % S (U-937/Bcl-2 cells; U-937/Bcl-2, 48 h, 1 µM): 27.4 ± 0.2% | % Sub-G1 (U-937/Bcl-2 cells; U-937/Bcl-2, 48 h, 1 µM): 6.5 ± 0.5% | % G1 (U-937/Bcl-2 cells; U-937/Bcl-2, 72 h, 0.3 µM): 53.6 ± 1.2% | % G2-M (U-937/Bcl-2 cells; U-937/Bcl-2, 72 h, 0.3 µM): 20.0 ± 0.8% | % S (U-937/Bcl-2 cells; U-937/Bcl-2, 72 h, 0.3 µM): 21.8 ± 1.4% | % Sub-G1 (U-937/Bcl-2 cells; U-937/Bcl-2, 72 h, 0.3 µM): 3.1 ± 0.9% | % G1 (U-937/Bcl-2 cells; U-937/Bcl-2, 72 h, 1 µM): 41.6 ± 2.5 % | % G2-M (U-937/Bcl-2 cells; U-937/Bcl-2, 72 h, 1 µM): 24.8 ± 2.6% | % S (U-937/Bcl-2 cells; U-937/Bcl-2, 72 h, 1 µM): 24.0 ± 1.8% | % Sub-G1 (U-937/Bcl-2 cells; U-937/Bcl-2, 72 h, 1 µM): 7.5 ± 1.2% | apoptosis induction (fluorescence microscopy and flow cytometry) (U-937/Bcl-2 cells; U-937/Bcl-2 cells): only induced low apoptosis | IC50 [3]: 700 ± 200 nM | IC50 [4]: 2900 ± 700 nM | IC50 [5]: 3400 ± 1000 nM | % G1 (U-937 cells; U-937, 24 h, 3 µM): 52.3 ± 0.2% | % G2-M (U-937 cells; U-937, 24 h, 3 µM): 21.2 ± 0.4% | % S (U-937 cells; U-937, 24 h, 3 µM): 21.8 ± 0.0% | % Sub-G1 (U-937 cells; U-937, 24 h, 3 µM): 3.5 ± 0.3% | % G1 (U-937 cells; U-937, 24 h, 10 µM): 44.9 ± 0.6% | % G2-M (U-937 cells; U-937, 24 h, 10 µM): 24.8 ± 0.3% | % S (U-937 cells; U-937, 24 h, 10 µM): 22.9 ± 0.4% | % Sub-G1 (U-937 cells; U-937, 24 h, 10 µM): 5.6 ± 0.5% | % G1 (U-937 cells; U-937, 48 h, 3 µM): 52.9 ± 0.9% | % G2-M (U-937 cells; U-937, 48 h, 3 µM): 18.3 ± 0.3% | % S (U-937 cells; U-937, 48 h, 3 µM): 25.8 ± 0.5% | % Sub-G1 (U-937 cells; U-937, 48 h, 3 µM): 2.3 ± 0.1% | % G1 (U-937 cells; U-937, 48 h, 10 µM): 55.3 ± 0.7% | % G2-M (U-937 cells; U-937, 48 h, 10 µM): 16.9 ± 0.5% | % S (U-937 cells; U-937, 48 h, 10 µM): 23.1 ± 0.1% | % Sub-G1 (U-937 cells; U-937, 48 h, 10 µM): 4.1 ± 0.4% | % G1 (U-937 cells; U-937, 72 h, 3 µM): 53.6 ± 2.4% | % G2-M (U-937 cells; U-937, 72 h, 3 µM): 15.4 ± 1.0% | % S (U-937 cells; U-937, 72 h, 3 µM): 21.3 ± 1.0% | % Sub-G1 (U-937 cells; U-937, 72 h, 3 µM): 7.9 ± 0.2% | % G1 (U-937 cells; U-937, 72 h, 10 µM): 55.1 ± 0.0% | % G2-M (U-937 cells; U-937, 72 h, 10 µM): 15.5 ± 0.8% | % S (U-937 cells; U-937, 72 h, 10 µM): 22.6 ± 0.7% | % Sub-G1 (U-937 cells; U-937, 72 h, 10 µM): 5.4 ± 0.2% | apoptosis induction (fluorescence microscopy and flow cytometry) (U-937 cells; U-937 cells): not an apoptotic inducer | IC50 (bovine brain tubulin): > 20000 nM
